Experimental findings from US20230021448A1, “COMPOUNDS AND COMPOSITIONS FOR TREATING CONDITIONS ASSOCIATED WITH STING ACTIVITY” (IFM Due, Inc., priority 2019, published 2023) are described below.

The test deals with T1, STING (Homo sapiens, UniProt Q86WV6, G230A/H232R/R293Q/R71H).
T1 construct: host or cells: THP1-Dual KO-IFNAR2 cells
T1 sequence (Q86WV6 whole entry R71H/G230A/H232R/R293Q): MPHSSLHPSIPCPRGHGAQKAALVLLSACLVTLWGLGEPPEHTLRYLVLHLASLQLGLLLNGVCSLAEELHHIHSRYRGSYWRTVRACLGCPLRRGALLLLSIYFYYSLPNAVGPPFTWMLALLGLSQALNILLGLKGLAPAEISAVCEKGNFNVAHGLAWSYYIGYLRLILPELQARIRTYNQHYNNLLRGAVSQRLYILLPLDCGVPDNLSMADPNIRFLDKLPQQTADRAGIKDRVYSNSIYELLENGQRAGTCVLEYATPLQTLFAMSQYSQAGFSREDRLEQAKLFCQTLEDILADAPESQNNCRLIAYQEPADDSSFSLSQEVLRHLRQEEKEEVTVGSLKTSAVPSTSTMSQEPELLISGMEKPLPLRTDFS
Briefly: STING reporter assay: luciferase reporter activity in THP1-Dual KO-IFNAR2 cells stimulated with 2'3'cGAMP. It is filed as cell-based. The note with it: 2′3′cGAMP 15 μM final, 24h, read-out: hSTING: EC50. As for the experimental part:
STING pathway activation by the compounds described herein was measured using THIP1-Dua1™ cells (KO-IFNAR2).
TTIP1-Dual™ KO-IFNAR2 Cells (obtained from invivogen) were maintained in RPMI, 10% FCS, 5 ml P/S, 2 mM L-glut, 10 mM Hepes, and 1 mM sodium pyruvate. Compounds were spotted in empty 384 well tissue culture plates (Greiner 781182) by Echo for a final concentration of 0.0017-100 μM. Cells were plated into the TC plates at 40 μL per well, 2×10E6 cells/mL. For activation with STING ligand, 2′3′cGAMP (MW 718.38, obtained from Invivogen), was prepared in Optimem media.
The following solutions were prepared for each 1×384 plate: • Solution A: 2 mL Optimem with one of the following stimuli: • […] • Solution B: 2 mL Optimem with 60 μL Lipofectamine 2000->Incubate 5 min at RT
2 mL of solution A and 2 ml Solution B was mixed and incubated for 20 min at room temperature (RT). 20 uL of transfection solution (A+B) was added on top of the plated cells, with a final 2′3′cGAMP concentration of 15 μM. The plates were then centrifuged immediately at 340 g for 1 minute, after which they were incubated at 37° C., 5% C02, >98% humidity for 24h. Luciferase reporter activity was then measured. EC50 values were calculated by using standard methods known in the art.
Luciferase reporter assay: 10 μL of supernatant from the assay was transferred to white 384-plate with flat bottom and squared wells. One pouch of QUANTI-Luc™ Plus was dissolved in 25 mL of water. 100 μL of QLC Stabilizer per 25 mL of QUANTI-Luc™ Plus solution was added. 50 μL of QUANTI-Luc™ Plus/QLC solution per well was then added. Luminescence was measured on a Platereader (e.g., Spectramax I3X (Molecular Devices GF3637001)).
Luciferase reporter activity was then measured. EC50 values were calculated by using standard methods known in the art.
The term EC50 denotes the concentration that produces a half-maximal response. As for `O=C(Nc1c[nH]c2cc(F)c(F)cc12)C(=O)N[C@H]1CCN(c2ccc(C(F)(F)F)cn2)C1` [Compound 264, (S)-N-(5,6-difluoro-1H-indol-3-yl)-N′-(1-(5-(trifluoromethyl)pyridin-2-yl)pyrrolidin-3-yl)oxalamide], the EC50 fell in the range of 200 to 1000 nM.

Turning to `O=C(Nc1c[nH]c2cc(F)c(F)cc12)C(=O)NC1CCN(c2ccccc2)C1` (stereo not shown) [Compound 169], the EC50 is 200 to 1000 nM.

In the case of `O=C(Nc1c[nH]c2cc(F)c(F)cc12)C(=O)N[C@H]1CC[C@H](OCC(F)F)CC1` [Compound 174], the EC50 lay in the range of 200 to 1000 nM.

Take `O=C(Nc1ccc(C2CCOCC2)cc1)C(=O)Nc1c[nH]c2cc(F)c(F)cc12` [Compound 105]: the EC50 lay in the range of 40 to 200 nM.

As to `CC(C)(C)C1CCC(NC(=O)C(=O)Nc2c[nH]c3cc(F)c(F)cc23)CC1` (stereo not shown) [Compound 191], the EC50 fell in the range of 200 to 1000 nM.

Consider `CC(NC(=O)C(=O)Nc1c[nH]c2cc(F)c(F)cc12)c1cc(C(F)(F)F)c(Cl)cn1` (stereo not shown) [Compound 303], for which the EC50 lay in the range of 200 to 1000 nM.

As to `O=C(NCCC12C[C@H]3C[C@@H](C1)C[C@@H](C2)C3)C(=O)Nc1c[nH]c2cc(F)c(F)cc12` [Compound 188], the EC50 is 200 to 1000 nM.

As to `O=C(Nc1ccc2c(cnn2Cc2cccc(F)c2)c1)C(=O)Nc1c[nH]c2cc(F)c(F)cc12` [Compound 262, N-(5,6-difluoro-1H-indol-3-yl)-N′-{1-[(3-fluorophenyl)methyl]-1H-indazol-5-yl}ethanediamide], the EC50 lay within 200 to 1000 nM.

Turning to `O=C(Nc1c[nH]c2cc(F)c(F)cc12)C(=O)N[C@@H]1CCC2(CCCCC2)C1` (stereo in doubt) [Compound 248], the EC50 was in the range of 40 to 200 nM.

`O=C(Nc1c[nH]c2cc(F)c(F)cc12)C(=O)N[C@@H]1CCC[C@@H](Oc2ccc(C(F)(F)F)cc2)C1` (single isomer, unassigned) [Compound 228]: the EC50 fell in the range of 200 to 1000 nM.

Regarding `O=C(Nc1c[nH]c2cc(F)c(F)cc12)C(=O)N1CCC(Oc2ccc(C(F)(F)F)cc2)CC1` [Compound 317], the EC50 fell in the range of 200 to 1000 nM.

Take `O=C(Nc1c[nH]c2cc(F)c(F)cc12)C(=O)N1CCCC(Oc2ccc(C(F)(F)F)cc2)C1` (stereo not shown) [Compound 195]: the EC50 is 200 to 1000 nM.

For `O=C(NCc1ccc(C(F)(F)F)c(Cl)c1)C(=O)Nc1c[nH]c2ccc(-c3cccc(CO)c3)cc12` [Compound 349, N-(3-chloro-4-(trifluoromethyl)benzyl)-N′-(5-(3-(hydroxymethyl)phenyl)-1H-indol-3-yl)oxalamide], the EC50 was 1000 to 5000 nM.

For `O=C(Nc1c[nH]c2cc(F)c(F)cc12)C(=O)NC1CCC(Oc2ccc(C(F)(F)F)nc2)CC1` (stereo not shown) [Compound 224], the EC50 lay within 40 to 200 nM.

As to `Cc1ccc(CNC(=O)C(=O)Nc2c[nH]c3ccc(Br)cc23)cc1C(F)(F)F` [Compound 124], the EC50 was 200 to 1000 nM.

As for `O=C(Nc1c[nH]c2cc(F)c(F)cc12)C(=O)NC1CCC(Cc2ccccc2)CC1` (stereo not shown) [Compound 122], the EC50 is 200 to 1000 nM.

In the case of `CC(CN(C)c1ccccc1)NC(=O)C(=O)Nc1c[nH]c2cc(F)c(F)cc12` (single isomer, unassigned) [Compound 320], the EC50 was 200 to 1000 nM.

With `O=C(Nc1ccc(C(F)(F)F)cc1)C(=O)Nc1c[nH]c2ccc(I)cc12` [Compound 263], the EC50 lay in the range of 200 to 1000 nM.

As for `O=C(NCC(c1ccccc1)C(F)F)C(=O)Nc1c[nH]c2cc(F)c(F)cc12` (single isomer, unassigned) [Compound 347], the concentration giving a half-maximal response (EC50) was in the range of 200 to 1000 nM.

`CC[C@H]1CC[C@H](NC(=O)C(=O)Nc2c[nH]c3cc(F)c(F)cc23)CC1` [Compound 186]: the EC50 was in the range of 40 to 200 nM.

Take `O=C(NCc1ccc(Cl)c(C(F)(F)F)c1)C(=O)Nc1c[nH]c2cc(F)c(F)cc12` [Compound 164, N1-(4-chloro-3-(trifluoromethyl)benzyl)-N2-(5,6-difluoro-1H-indol-3-yl)oxalamide]: the EC50 fell in the range of 40 to 200 nM.

Consider `O=C(Nc1ccc(C(F)(F)F)cc1)C(=O)Nc1c[nH]c2ccc(F)cc12` [Compound 184], for which the 50% effective concentration (EC50) is 200 to 1000 nM.

Turning to `CC(C)(O)c1cccc(-c2ccc3[nH]cc(NC(=O)C(=O)NCc4ccc(C(F)(F)F)c(Cl)c4)c3c2)c1` [Compound 340], the EC50 was in the range of 1000 to 5000 nM.

In the case of `O=C(Nc1c[nH]c2cc(F)c(F)cc12)C(=O)N[C@H]1CC[C@@H](Oc2ccc(C(F)(F)F)cn2)CC1` [Compound 229], the EC50 fell in the range of 1000 to 5000 nM.

As for `O=C(Nc1c[nH]c2cc(F)c(F)cc12)C(=O)NC1CCC2(CCCCO2)CC1` (stereo not shown) [Compound 282], the EC50 fell in the range of 200 to 1000 nM.

With `O=C(Nc1ccc(C(F)(F)F)cn1)C(=O)Nc1c[nH]c2cc(F)c(F)cc12` [Compound 101], the EC50 was in the range of 200 to 1000 nM.

`O=C(Nc1c[nH]c2cc(F)c(F)cc12)C(=O)N[C@H]1CC[C@H](Oc2ccc(C(F)(F)F)cc2)CC1` [Compound 250, N-(5,6-difluoro-1H-indol-3-yl)-N′-(trans-4-(4-(trifluoromethyl)phenoxy)cyclohexyl)oxalamide]: the EC50 was in the range of 40 to 200 nM.

For `O=C(Nc1ccc(C(F)(F)F)cc1)C(=O)Nc1c[nH]c2cc(F)c(F)cc12` [Compound 115, N1-(5,6-difluoro-1H-indol-3-yl)-N2-(4-(trifluoromethyl)phenyl) oxalamide], the EC50 was 40 to 200 nM.

Turning to `O=C(Nc1c[nH]c2cc(F)c(F)cc12)C(=O)N1CCN(CCc2ccc(C(F)(F)F)cc2)CC1` [Compound 216], the EC50 is 1000 to 5000 nM.

As for `O=C(Nc1cnc2c(c1)CCC2)C(=O)Nc1c[nH]c2cc(F)c(F)cc12` [Compound 274, N′-{5H,6H,7H-cyclopenta[b]pyridin-3-yl}-N-(5,6-difluoro-1H-indol-3-yl)ethanediamide], the EC50 was 1000 to 5000 nM.

For the compound `O=C(Nc1ccc(OCC(F)(F)F)nc1)C(=O)Nc1c[nH]c2cc(F)c(F)cc12` [Compound 157, N1-(5,6-difluoro-1H-indol-3-yl)-N2-(6-(2,2,2-trifluoroethoxy)pyridin-3-yl) oxalamide], the EC50 was in the range of 200 to 1000 nM.

Consider `O=C(NCc1ccc2ccccc2n1)C(=O)Nc1c[nH]c2cc(F)c(F)cc12` [Compound 304, N-(5,6-difluoro-1H-indol-3-yl)-N′-[(quinolin-2-yl)methyl] ethanediamide], for which the EC50 lay in the range of 200 to 1000 nM.

As for `O=C(NCc1ccc(F)c(OC(F)(F)F)c1)C(=O)Nc1c[nH]c2cc(F)c(F)cc12` [Compound 131, N1-(5,6-difluoro-1H-indol-3-yl)-N2-(4-fluoro-3-(trifluoromethoxy)benzyl) oxalamide], the EC50 was 200 to 1000 nM.

In the case of `O=C(Nc1c[nH]c2cc(F)c(F)cc12)C(=O)N[C@H]1CCN(c2ccccc2)C1` [Compound 127], the EC50 lay in the range of 40 to 200 nM.

With `O=C(NCc1cnc(C2CCC(F)(F)CC2)c(F)c1)C(=O)Nc1c[nH]c2cc(F)c(F)cc12` [Compound 333], the EC50 is 200 to 1000 nM.

On to `N#Cc1cc(F)c2[nH]cc(NC(=O)C(=O)NCc3ccc(C(F)(F)F)c(Cl)c3)c2c1` [Compound 215], for which the concentration giving a half-maximal response (EC50) was 200 to 1000 nM.

Take `CC(C)n1cc(-c2cc3c(NC(=O)C(=O)Nc4ccc(C(F)(F)F)cc4)c[nH]c3cc2F)cn1` [Compound 341, N-(6-fluoro-5-(1-isopropyl-1H-pyrazol-4-yl)-1H-indol-3-yl)-N′-(4-(trifluoromethyl)phenyl)oxalamide]: the concentration giving a half-maximal response (EC50) is 200 to 1000 nM.

As for `O=C(NCc1cnc(C(F)(F)F)c(Cl)c1)C(=O)Nc1c[nH]c2cc(F)c(F)cc12` [Compound 173], the EC50 is 200 to 1000 nM.

As to `Cc1ccc(CNC(=O)C(=O)Nc2c[nH]c3ccc(-c4cnn(C(C)C)c4)cc23)cc1C(F)(F)F` [Compound 168], the EC50 lay in the range of 200 to 1000 nM.

`C[C@H](NC(=O)C(=O)Nc1c[nH]c2cc(F)c(F)cc12)c1cc(C(F)(F)F)c(Cl)cn1` (stereo in doubt) [Compound 259]: the half-maximal effective concentration (EC50) was 40 to 200 nM.

On to `O=C(NCc1ccccc1C(F)(F)F)C(=O)Nc1c[nH]c2cc(F)c(F)cc12` [Compound 165, N1-(5,6-difluoro-1H-indol-3-yl)-N2-(2-(trifluoromethyl)benzyl)oxalamide], for which the EC50 lay within 40 to 200 nM.

In the case of `Cc1cc(NC(=O)C(=O)Nc2c[nH]c3cc(F)c(-c4cnn(C)c4)cc23)cnc1N1CCC(F)(F)CC1` [Compound 232], the EC50 is 1000 to 5000 nM.

With `Cn1cc(NC(=O)C(=O)NCc2ccc(C(F)(F)F)c(Cl)c2)c2cc(F)c(F)cc21` [Compound 170], the EC50 fell in the range of 5000 to 100000 nM.

As to `CC1(CNC(=O)C(=O)Nc2c[nH]c3cc(F)c(F)cc23)CCC(F)(F)CC1` [Compound 153, N1-((4,4-difluoro-1-methylcyclohexyl)methyl)-N2-(5,6-difluoro-1H-indol-3-yl)oxalamide], the EC50 fell in the range of 1000 to 5000 nM.

For `COc1ccc(CNC(=O)C(=O)Nc2c[nH]c3cc(F)c(F)cc23)cc1Cl` [Compound 161, N1-(3-chloro-4-methoxybenzyl) N2-(5,6-difluoro-1H-indol-3-yl)oxalamide], the 50% effective concentration (EC50) fell in the range of 200 to 1000 nM.

Take `CN(C(=O)C(=O)Nc1c[nH]c2cc(F)c(F)cc12)c1ccc(C(F)(F)F)cc1` [Compound 114]: the concentration giving a half-maximal response (EC50) is 1000 to 5000 nM.
